Tests used:
N-UHRF1 vs. C-UHRF1 = biological target: T1, N-UHRF1 vs. C-UHRF1 (Homo sapiens, UniProt Q96T88); test: AlphaScreen assay: N-UHRF1 interaction with C-UHRF1 (TTD:PBR); format: biochemical; settings: for AlphaScreen (N-UHRF1 vs. C-UHRF1) EC50 / EC50: EC50 ± S.E.M., n=3, highest concentration tested 1 mM; for inhibition of N-UHRF1:C-UHRF1 interaction by peptide (in words): peptide (1-20) at 50 µM (Fig. S1)
T1 construct: biotinylated-AviTag-N-UHRF1 (containing UBL and TTD, aa 1–285); made in house; host or cells: Rosetta (DE3) E. coli; pMCSG51 (N-UHRF1), pMCSG7 (FLAG-C-UHRF1)
T1 sequence (Q96T88 1-285): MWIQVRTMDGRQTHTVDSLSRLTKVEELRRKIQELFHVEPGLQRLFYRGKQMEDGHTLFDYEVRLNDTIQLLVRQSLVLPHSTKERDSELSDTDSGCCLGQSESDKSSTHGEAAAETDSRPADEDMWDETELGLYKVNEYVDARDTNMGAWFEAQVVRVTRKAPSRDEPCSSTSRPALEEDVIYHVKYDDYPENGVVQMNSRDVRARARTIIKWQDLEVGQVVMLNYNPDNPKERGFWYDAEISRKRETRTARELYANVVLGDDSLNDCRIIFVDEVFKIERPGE
Text: We next turned our attention to screens that reported on functional effects of fragment binding to UHRF1-TTD. UHRF1 can assume two functionally distinct conformations that are favored by different intra-molecular interactions[15],[32]–[35]. UHRF1 assumes a ‘closed’ conformation with diminished E3 ligase activity when the TTD domain interacts with the internal PBR[32]–[35]. To identify compounds that block this internal TTD:PBR interaction, we developed an assay using AlphaScreen (Amplified Luminescent Proximity Homogeneous Assay, Perkin Elmer) technology that detects the interaction between biotinylated-AviTag-N-UHRF1 (containing UBL and TTD, aa 1–285) and FLAG-C-UHRF1 (containing SRA, RING E3 domains and PBR, aa 414–793) (Fig. 1A,C). […] The signal change in each well was calculated relative to DMSO controls on each plate.
The fragment screen was carried out on low volume 384-well white plates (Corning 4512) and the assay was performed at room temperature. First, 5 µl of AlphaScreen buffer (50 mM HEPES, pH = 6.5, 150 mM NaCl, 0.1% Triton X-100, 1 mM DTT) was dispensed by multidrop combi microplate dispenser (Thermo Scientific) and 300 nl of chemical fragment stock (10 mM in DMSO) was added to each well by pintool using Tecan Freedom Evo liquid handler. Next, 3 µl of AlphaScreen reagent mix containing 768 nM of Biotinylated-His-Avitag-N-UHRF1, 768 nM of FLAG-C-UHRF1, 40 µg/ml streptavidin donor beads, and 40 µg/ml Anti-FLAG conjugated acceptor beads (PerkinElmer) was added to each well by multidrop. The final concentration of FLAG-C-UHRF1 was 300 nM, Biotinylated-His-Avitag-N-UHRF1 was 300 nM, Donor/acceptor beads each was 15 µg/ml. In this assay, the biotinylated-AviTag-N-UHRF1 binds to streptavidin-coated donor beads while the FLAG-C-UHRF1 interacts with the anti-FLAG antibody-coated acceptor beads. The final compound concentration was 360 µM. After 1 h of incubation, the AlphaScreen signal of each plate was measured with a Tecan Infinite M1000 plate reader, which uses a high-power laser (680 nm, 750 mW) as the excitation light source for the donor beads and the AlphaScreen filter was used to detect the emission between 520 and 620 nm from the acceptor beads. For the dose-dependent assays for SAR, the final concentrations of N-UHRF1, C-UHRF1, donor, and acceptor beads were the same as fragment screen. The only differences were that the phosphate buffer was used (50 mM sodium phosphate, pH = 7, 150 mM NaCl, 1 mM DTT, and 0.1% Triton-X-100) and the final volume was 10 µL. For the fragment screen, on seven of the library plates there were 32-wells of DMSO control, while there were 8-wells of DMSO control in the last plate.

[1] = biological target: T2, His6-TTD (UHRF1 tandem Tudor domain) vs. H3K9me3 peptide (Homo sapiens, UniProt Q96T88); test: TR-FRET assay: His6-TTD interaction with H3K9me3 peptide; format: biochemical; settings: EC50 ± S.E.M., n=3; highest concentration tested 1 mM
T2 construct: Using the isolated His6-TTD (aa 123–283) we performed a thermal shift assay; made in house; host or cells: Rosetta (DE3) E. coli, pMCSG7
T2 sequence (Q96T88 123-283): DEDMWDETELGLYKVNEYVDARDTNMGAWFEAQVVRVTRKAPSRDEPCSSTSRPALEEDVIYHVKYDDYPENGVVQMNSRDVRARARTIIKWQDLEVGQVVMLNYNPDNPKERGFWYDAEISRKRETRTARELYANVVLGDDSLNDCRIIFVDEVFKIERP
Procedure: Finally, the fragment library was screened using a TR-FRET assay to find inhibitors that block the interaction of His6-TTD with H3K9me3 peptide. In this assay, an anti-His6-antibody labeled with Tb cryptate binds to His6-TTD while a streptavidin-d2 acceptor binds to a biotinylated histone H3K9me3 peptide. The binding between His6-TTD and H3K9me3 peptide was measured by the ratio of 665 nm fluorescence (from the d2 acceptor) to 620 nm fluorescence (from the Tb cryptate donor) (Fig. 1D).
The fragment screen was carried out on low volume 384-well white plates (Corning 4512) and the assay was performed at room temperature. […] After 1 h of incubation, the fluorescent signals at 665 nm and 620 nm of each plate were measured by the Tecan Infinite M1000 plate reader (excitation 340 nm, 60 µs lag time, and 500 µs integration time) and the TR-FRET signal was calculated by the ratio of 665 nm/620 nm fluorescent signal. For the fragment screen, on seven of the library plates there were 32-wells of DMSO control, while there were 8-wells of DMSO control in the last plate. […] The only difference was that the final concentration of His6-TTD-PHD was 200 nM, biotin-H3K9me3 peptide was 200 nM for the His6-TTD-PHD TR-FRET assay, while the final concentration of His6-UHRF1-FL was 200 nM and biotin-H3K9me3 peptide was 100 nM for the His6-UHRF1-FL TR-FRET assay. The buffer pH was 7.5 for the His6-TTD-PHD and His6-UHRF1-FL assays.

UHRF1-TTD = biological target: T3, UHRF1-TTD (Homo sapiens, UniProt Q96T88); test: Thermal shift assay (TSA) of TTD; format: binding; settings: for ΔTm at 500 µM / TSA (ΔTm) at 500 μM: compound at 500 μM, untagged TTD, 150 mM NaCl, mean ± S.D., n=3; for ΔTm at 200 µM: fragment screen, His6-TTD, final compound concentration 200 µM, 300 mM NaCl, read-out: ThermoFluor (ΔTm), fragment screen
T3 construct: Using the isolated His6-TTD (aa 123–283) we performed a thermal shift assay; His6 (N, cleaved yes); made in house; host or cells: Rosetta (DE3) E. coli, pMCSG7
T3 sequence (Q96T88 123-283): T2 sequence (Q96T88 123-283)
Procedure: We used three different assays in parallel to screen a ~ 2300-fragment library to identify hits that bind to TTD or inhibit its activities. The first screening method was a direct binding assay, which generally serves as the basis for most fragment screening. Using the isolated His6-TTD (aa 123–283) we performed a thermal shift assay (TSA) to determine the change in melting temperature upon fragment binding. The change in protein melting temperature (ΔTm) caused by each fragment was calculated by comparison to the DMSO controls on the same plate.
The fragment screen was carried out on LightCycler 480 Multiwell Plates 384 (Roche). The TSA mix contains 0.15 mg/ml of His6-TTD, 10 × of SYPRO Orange dye (ThermoFisher) in the TSA buffer (50 mM sodium phosphate, pH = 7, 300 mM NaCl). During the screen, 5 µl of TSA mix was dispensed into each well, and 100 nl of chemical fragments stock (10 mM in DMSO) was added to each well by pintool using Tecan Freedom Evo liquid handler to make the final compound concentration 200 µM. After 1 h of incubation at room temperature, the increase of fluorescence at 580 nm (excitation 465 nm) during the 20–90 degree melting (0.04 °C/s) was measured by LightCycler 480 Instrument II (Roche). For the fragment screen, on seven of the library plates there were 32-wells of DMSO control, while there were 8-wells of DMSO control in the last plate. […] Using un-tagged TTD for TSA provide closer resemblance to the native state of TTD. The lower salt concentration (150 mM NaCl) also allowed better comparison across three different assays during the dose-dependent SAR studies as both AlphaScreen and TR-FRET assay also use buffers containing 150 mM NaCl.

[2] = biological target: T4, UHRF1-SRA domain vs. DNMT1-RFTS domain (Homo sapiens, UniProt P26358+Q96T88); test: AlphaScreen assay UHRF1-SRA domain vs. DNMT1-RFTS domain (other screen); format: biochemical; settings: fragment screen
T4 construct: UHRF1-SRA domain vs. DNMT1-RFTS domain
T4 sequence (P26358 400-533 limits assumed, one chain of several): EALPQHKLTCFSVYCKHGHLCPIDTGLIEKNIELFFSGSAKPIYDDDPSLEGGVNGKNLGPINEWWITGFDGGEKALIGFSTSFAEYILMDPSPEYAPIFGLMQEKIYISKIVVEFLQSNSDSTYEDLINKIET
Text: (§1) F1957-0227 was identified as a hit in two other AlphaScreen assays (N-UHRF1 vs. USP7-UBL1/2 and UHRF1-SRA domain vs. DNMT1-RFTS domain) and in three TSAs against unrelated protein targets (USP7-UBL1/2, UHRF1-SRA domain, and DNMT1-RFTS domain); we concluded that F1957-0227 behaves as a pan-assay interference compound (PAINS)[53] and is thus not suitable for follow-up.

USP7-UBL1/2 = USP7-UBL1/2 (Homo sapiens, UniProt Q93009); test: TSA against USP7-UBL1/2; format: binding; settings: fragment screen
Sequence of USP7-UBL1/2 (Q93009 560-776 limits assumed): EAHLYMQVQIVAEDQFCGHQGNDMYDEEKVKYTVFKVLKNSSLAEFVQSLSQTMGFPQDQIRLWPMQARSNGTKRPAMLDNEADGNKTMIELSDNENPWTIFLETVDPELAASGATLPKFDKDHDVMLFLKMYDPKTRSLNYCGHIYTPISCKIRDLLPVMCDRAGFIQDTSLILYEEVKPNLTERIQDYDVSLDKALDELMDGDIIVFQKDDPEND
Text: as §1

N-UHRF1 vs. USP7-UBL1/2 = test: AlphaScreen assay N-UHRF1 vs. USP7-UBL1/2 (other screen); format: biochemical; settings: fragment screen
Text: as §1

UHRF1-SRA domain = biological target: T5, UHRF1-SRA domain (Homo sapiens, UniProt Q96T88); test: TSA against UHRF1-SRA domain; format: binding; settings: fragment screen
T5 construct: unrelated protein targets (USP7-UBL1/2, UHRF1-SRA domain, and DNMT1-RFTS domain)
T5 sequence (Q96T88 419-582 limits assumed): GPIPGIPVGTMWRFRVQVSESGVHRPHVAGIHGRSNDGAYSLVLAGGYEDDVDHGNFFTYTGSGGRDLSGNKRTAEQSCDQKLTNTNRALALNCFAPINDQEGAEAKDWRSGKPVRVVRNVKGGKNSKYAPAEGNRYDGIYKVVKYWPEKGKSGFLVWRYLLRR
Text: as §1

DNMT1-RFTS domain = biological target: T6, DNMT1-RFTS domain (Homo sapiens, UniProt P26358); test: TSA against DNMT1-RFTS domain; format: binding; settings: fragment screen
T6 construct: unrelated protein targets (USP7-UBL1/2, UHRF1-SRA domain, and DNMT1-RFTS domain)
T6 sequence (P26358 400-533 limits assumed): as the sequence (P26358 400-533 limits assumed, one chain of several) above
Text: as §1

Compound | EC50 [1] | EC50 (N-UHRF1 vs. C-UHRF1) | TSA (ΔTm) at 500 μM (UHRF1-TTD) | other results
c1cnc2c(c1)CCCC2 [Compound 6, 5,6,7,8-tetra-hydro-quinoline] | > 500 µM | – | – | AlphaScreen (N-UHRF1 vs. C-UHRF1) EC50 (N-UHRF1 vs. C-UHRF1): 281.7 ± 227.7 µM; ΔTm at 500 µM (UHRF1-TTD): 0.21 ± 0.06 °C
Nc1ncc(Br)c2cc[nH]c12 [Compound F1957-0227] | – | – | – | hit call in AlphaScreen UHRF1-SRA domain vs. DNMT1-RFTS domain [2]: hit; hit call in TSA against USP7-UBL1/2 (USP7-UBL1/2): hit; hit call in AlphaScreen N-UHRF1 vs. USP7-UBL1/2 (N-UHRF1 vs. USP7-UBL1/2): hit; hit call in TSA against UHRF1-SRA domain (UHRF1-SRA domain): hit; hit call in TSA against DNMT1-RFTS domain (DNMT1-RFTS domain): hit; ΔTm at 200 µM (UHRF1-TTD): 2.58 °C
Cc1ccnc(N)c1 [Compound 8] | 238 ± 89.1 µM | 52.6 ± 6.9 µM | 0.66 ± 0.09 °C | –
Cc1cc(C)c2c(n1)NCCC2 [Compound F1957-0088] | – | – | – | ΔTm at 500 µM (UHRF1-TTD): 1.52 ± 0.09 °C; ΔTm at 200 µM (UHRF1-TTD): 1.74 °C
H3K4me3 peptide: histone H3 (1-20) peptide trimethylated at Lys4, negative control [reference compound] | – | – | – | inhibition of N-UHRF1:C-UHRF1 interaction by peptide (in words) (N-UHRF1 vs. C-UHRF1): not
c1cnc2c(c1)CCCN2 [Compound 2] | 109 ± 18.2 µM | 164 ± 33 µM | 0.75 ± 0.02 °C | –
H3K9me3 peptide: histone H3 (1–20) peptide trimethylated at Lys9, TTD ligand [reference compound] | – | – | – | inhibition of N-UHRF1:C-UHRF1 interaction by peptide (in words) (N-UHRF1 vs. C-UHRF1): could inhibit
Cc1c(Br)cnc2c1CCCN2 [Compound 3] | 58.5 ± 8.4 µM | 75.7 ± 14.4 µM | 0.1 ± 0.06 °C | –
c1cnc2c(c1)NCCN2 [Compound 7, 1,2,3,4-tetrahydropyrido[2,3-b]pyrazine] | > 500 µM | – | – | AlphaScreen (N-UHRF1 vs. C-UHRF1) EC50 (N-UHRF1 vs. C-UHRF1): 379.8 ± 176.0 µM; ΔTm at 500 µM (UHRF1-TTD): 0.19 ± 0.06 °C
Cc1cc(C)nc(C)c1 [Compound 15] | 47.2 ± 4.9 µM | > 500 µM | 1.11 ± 0.06 °C | –
Cc1cc(C)nc(N)c1 [Compound 12] | 51.9 ± 8.1 µM | 21.3 ± 3.5 µM | 1.59 ± 0.06 °C | –
Cc1ccnc(Cl)c1 [Compound 9] | – | – | – | AlphaScreen (N-UHRF1 vs. C-UHRF1) EC50 (N-UHRF1 vs. C-UHRF1): No inhibition; TR-FRET (TTD vs. H3K9me3) EC50 [1]: No inhibition

Source: article PMC7806715, “Discovery of small molecules targeting the tandem tudor domain of the epigenetic factor UHRF1 using fragment-based ligand discovery” (Scientific Reports, 2021)
